Assay results from patent publication EP4741383A1, “COMPOUND AND USE THEREOF AS ANTI-CANCER DRUG” (Tyligand Bioscience (Shanghai) Limited, priority 2023, dated 2025).
Read-outs that look alike come from different tables or passages of the source.

Experiment: Rat PK study (IV 1 mg/kg and PO 5 mg/kg)
Assay type: in vivo, male SD rats
Conditions: for AUC(0-t) / clearance / half-life / Vd / Cmax: male, SD, rat, plasma; for clearance: read-out: IV Cl; for Vd: read-out: IV Vz
Protocol: According to standard methods for rat PK studies in this field, the rat PK tests for the representative compounds of this disclosure and the positive control compound (11a-1) were conducted as follows.
Specifically, six male SD rats (6-8 weeks old, weighing 200 ± 20 g, purchased from Vital River Laboratories) were randomly divided into two groups of three rats each, for intravenous (IV) and oral gavage (PO) administration, respectively.
For the intravenous injection group: the test compound was weighed according to the administration dose (1 mg/kg), dissolved using the solvent listed in the table below to obtain a clear solution of 1 mg/mL, and administered to the rats via tail vein injection at a dose of 1 mg/kg. […]
Blood was collected via jugular vein puncture at various time points: 0.083, 0.25, 0.5, 1, 2, 4, 6, 8, and 24 hours. 0.2 mL of whole blood was collected at each time point, placed in a 1.5 mL anticoagulant tube containing EDTA, and placed on a sample plate containing wet ice until centrifugation; after centrifugation at 8000 rpm for 10 minutes at 4°C, 0.1 mL of plasma sample was collected and stored in an […] cryovial at -20°C until analysis.
Preparation of the stock solution of the test compound: 1 mg of the test compound was accurately weighed, dissolved in 1 mL of DMSO to prepare a 1 mg/mL stock solution S1, and stored in a 4°C refrigerator until use.
Preparation of the internal standard working solution: 0.1 mL of tolbutamide (2 mg/mL) internal standard stock solution was pipetted into 1000 mL of acetonitrile to prepare a 200 ng/mL internal standard working solution, which is used as a protein precipitant in sample pretreatment. The prepared internal standard working solution was stored at 4°C and valid for 12 months.
Preparation of the standard curve and quality control sample working solutions: 50 µL of the 1 mg/mL test compound DMSO stock solution S1 was diluted with 950 µL of 100% methanol solution to obtain a working solution with a concentration of 50000 ng/mL. Then, the 50000 ng/mL working solution was serially diluted with 100% methanol solution to obtain a series of standard curve working solutions with concentrations of 10, 20, 50, 100, 500, 1000, 5000, 10000, 20000, and 50000 ng/mL. 40 µL of the 1 mg/mL test compound DMSO stock solution S1 was diluted with 960 µL of 100% methanol solution to obtain a quality control sample working solution with a concentration of 40000 ng/mL. An appropriate amount of this working solution was diluted appropriately to prepare quality control sample working solutions with concentrations of 8000 and 16000 ng/mL. 60 µL of the 50 ng/mL test compound DMSO standard curve working solution was diluted with 40 µL of 100% methanol solution to obtain a quality control sample working solution with a concentration of 30 ng/mL.
Plasma sample treatment: standard curve and quality control samples for the test compound in plasma were prepared by diluting 5 µL of working solutions of different concentrations of the test compound for the standard curve and quality control samples in 45 µL of blank rat plasma, resulting in final concentrations of 1, 2, 5, 10, 50, 100, 500, 1000, 2000, and 5000 ng/mL for the standard curve and final concentrations of 3, 800, 1600, and 4000 ng/mL for the quality control samples.
Plasma sample pretreatment: 50 µL of the plasma sample was transferred to a 96-well plate, added with 500 µL of acetonitrile containing 200 ng/mL tolbutamide as an internal standard for protein precipitation, and centrifuged at 4000 rpm for 20 minutes at 2-8 °C. 300 µL of the supernatant was transferred to a new labeled 96-well plate, mixed thoroughly with 300 µL of 0.1% formic acid in water, and injected 10 µL into LC-MS/MS (API-4000 Qtrap-Shimadzu Controller-CBM20A).
The internal standard method was used for sample analysis. Data acquisition and analysis were performed using Analyst 1.6.3. […]

[1] = 1 mg/kg, IV, dose 1 mpk, read-out: IV AUC 0->t
[2] = 1 mg/kg, IV, dose 1 mpk, read-out: IV T1/2 (converted)
[3] = 5 mg/kg, PO, dose 5 mpk, read-out: PO AUC 0->t
[4] = 5 mg/kg, PO, dose 5 mpk, read-out: PO T1/2 (converted)

| Compound | PO F (PO, dose 5 mpk (IV 1 mpk)) | AUC(0-t) [1] | clearance (1 mg/kg, IV, dose 1 mpk) | half-life [2] | Vd (1 mg/kg, IV, dose 1 mpk) | Cmax (5 mg/kg, PO, dose 5 mpk) | AUC(0-t) [3] | half-life [4] | PO F (PO, dose 10 mpk (IV 1 mpk)) | Cmax (10 mg/kg, PO, dose 10 mpk) | AUC(0-t) (10 mg/kg, PO, dose 10 mpk, read-out: PO AUC 0->t) | half-life (10 mg/kg, PO, dose 10 mpk, read-out: PO T1/2 (converted)) |
| --- | --- | --- | --- | --- | --- | --- | --- | --- | --- | --- | --- | --- |
| O=C(Nc1ccc(-c2cc3cc(F)c(-c4nnn[nH]4)cc3n2C2CCC2)cc1)C(=O)Nc1ccc(N2CCC(CO)CC2)cc1 [Example 23] | 52.7% | 2840 ng·h/mL | 5.45 mL/min/kg | 8.49 h | 4.01 L/kg | 1140 ng/mL | 8010 ng·h/mL | 3.17 h | – | – | – | – |
| Cn1c(-c2cccc(NC(=O)C(=O)Nc3ccc(-c4ccsc4)cc3)c2)c(I)c2cc(C(=O)O)c(O)cc21 [Example 11a-1, reference compound] | – | 4230 ng·h/mL | 4 mL/min/kg | 4.06 h | 1.42 L/kg | – | – | – | 0.07% | 44.2 ng/mL | 30 ng·h/mL | 1.1 h |
| CC1(n2c(-c3ccc(NC(=O)C(=O)Nc4ccc(N5CCC6(CCOC6)CC5)cc4)cc3)cc3cc(F)c(-c4nnn[nH]4)cc32)CCC1 [Example 68] | 30.5% | 1380 ng·h/mL | 12.6 mL/min/kg | 1.63 h | 1.57 L/kg | 150 ng/mL | 2100 ng·h/mL | 4.31 h | – | – | – | – |
